Where “and” joins values, the source holds several entries; their conditions need not be identical. Equal values may be shown once.
Key:
[1] = target: T1, HEK-mAC1 (Homo sapiens, UniProt Q08828); experiment: cAMP accumulation assay, isoproterenol-stimulated HEK-mAC1 cells; type: cell-based; settings: for cAMP level (%); 100%= 10µM Isoproterenol stimulation: single experiments
T1 construct: Human mAC genes were from GenScript and fitted with a C-terminal FLAG-tag; FLAG (C); expressed in transfected cells; host or cells: HEK293, permanently transfected
T1 sequence (Q08828 whole entry): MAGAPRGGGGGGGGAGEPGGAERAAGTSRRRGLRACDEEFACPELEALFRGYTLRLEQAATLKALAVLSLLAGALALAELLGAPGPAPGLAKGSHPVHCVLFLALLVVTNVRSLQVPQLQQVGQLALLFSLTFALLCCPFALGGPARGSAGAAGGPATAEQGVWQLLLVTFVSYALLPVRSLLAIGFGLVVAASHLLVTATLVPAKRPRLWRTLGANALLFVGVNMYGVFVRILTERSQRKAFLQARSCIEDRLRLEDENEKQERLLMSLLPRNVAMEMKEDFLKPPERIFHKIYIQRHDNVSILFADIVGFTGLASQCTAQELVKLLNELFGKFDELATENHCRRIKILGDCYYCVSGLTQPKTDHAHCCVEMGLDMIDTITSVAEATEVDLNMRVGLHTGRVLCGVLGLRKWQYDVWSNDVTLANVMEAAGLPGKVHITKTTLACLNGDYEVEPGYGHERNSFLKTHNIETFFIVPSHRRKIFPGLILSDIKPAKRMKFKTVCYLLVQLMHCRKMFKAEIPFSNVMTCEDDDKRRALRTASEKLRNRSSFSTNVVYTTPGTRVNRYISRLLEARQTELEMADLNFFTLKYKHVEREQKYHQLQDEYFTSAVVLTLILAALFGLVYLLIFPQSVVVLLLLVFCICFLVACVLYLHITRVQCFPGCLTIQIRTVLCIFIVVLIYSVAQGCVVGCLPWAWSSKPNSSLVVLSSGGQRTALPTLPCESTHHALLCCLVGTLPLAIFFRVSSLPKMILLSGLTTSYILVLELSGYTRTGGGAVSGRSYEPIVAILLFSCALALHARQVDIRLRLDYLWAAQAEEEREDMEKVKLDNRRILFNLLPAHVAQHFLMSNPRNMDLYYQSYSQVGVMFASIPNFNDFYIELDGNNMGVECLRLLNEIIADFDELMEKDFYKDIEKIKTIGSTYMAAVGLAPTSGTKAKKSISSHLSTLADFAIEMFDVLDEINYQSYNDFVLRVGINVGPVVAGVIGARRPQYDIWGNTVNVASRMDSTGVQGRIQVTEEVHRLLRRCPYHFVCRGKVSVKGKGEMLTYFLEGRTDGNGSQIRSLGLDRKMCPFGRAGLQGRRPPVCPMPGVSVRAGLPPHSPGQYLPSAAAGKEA

[2] = target: T2, HEK-mAC4 (Homo sapiens, UniProt Q8NFM4); experiment: cAMP accumulation assay, isoproterenol-stimulated HEK-mAC4 cells; type: cell-based; settings: for cAMP level (%); 100%= 10µM Isoproterenol stimulation: single experiments
T2 construct: Human mAC genes were from GenScript and fitted with a C-terminal FLAG-tag; FLAG (C); expressed in transfected cells; host or cells: HEK293, permanently transfected
T2 sequence (Q8NFM4 1-1077): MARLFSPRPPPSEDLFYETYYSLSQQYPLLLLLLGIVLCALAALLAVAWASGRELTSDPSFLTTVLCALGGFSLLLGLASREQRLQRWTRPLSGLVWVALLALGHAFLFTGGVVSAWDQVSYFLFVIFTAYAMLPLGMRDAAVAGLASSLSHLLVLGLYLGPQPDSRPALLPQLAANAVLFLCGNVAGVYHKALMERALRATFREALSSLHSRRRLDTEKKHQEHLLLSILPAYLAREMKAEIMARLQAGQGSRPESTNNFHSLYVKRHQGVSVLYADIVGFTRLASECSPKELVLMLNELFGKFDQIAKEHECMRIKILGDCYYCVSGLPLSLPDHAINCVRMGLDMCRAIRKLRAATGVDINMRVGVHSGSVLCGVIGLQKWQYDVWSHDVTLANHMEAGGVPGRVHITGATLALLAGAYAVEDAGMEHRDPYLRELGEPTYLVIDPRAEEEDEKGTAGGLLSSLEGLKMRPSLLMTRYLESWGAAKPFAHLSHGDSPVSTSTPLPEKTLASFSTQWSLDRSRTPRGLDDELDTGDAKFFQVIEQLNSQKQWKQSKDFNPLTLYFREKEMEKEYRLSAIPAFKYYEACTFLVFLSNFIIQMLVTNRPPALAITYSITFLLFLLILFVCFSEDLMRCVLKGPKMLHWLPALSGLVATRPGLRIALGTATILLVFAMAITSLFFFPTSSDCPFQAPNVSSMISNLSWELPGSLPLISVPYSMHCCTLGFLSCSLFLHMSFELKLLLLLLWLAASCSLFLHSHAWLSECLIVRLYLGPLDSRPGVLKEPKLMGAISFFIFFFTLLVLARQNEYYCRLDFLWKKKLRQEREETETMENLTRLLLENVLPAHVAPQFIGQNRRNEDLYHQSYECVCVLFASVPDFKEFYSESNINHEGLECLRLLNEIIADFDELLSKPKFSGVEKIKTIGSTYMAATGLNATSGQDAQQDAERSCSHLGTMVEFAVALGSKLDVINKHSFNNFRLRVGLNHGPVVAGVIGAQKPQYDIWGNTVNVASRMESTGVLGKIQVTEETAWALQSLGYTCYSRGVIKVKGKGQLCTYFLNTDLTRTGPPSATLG

[3] = tested on: mAC1-C1/mAC2-C2; experiment: AC assay, Gsα-stimulated soluble catalytic dimer; type: biochemical
Description: (§1) In a volume of 10 μl, AC activities were measured using 1 mM ATP, 2 mM MgCl2, 3 mM creatine phosphate, 60 μg/ml creatine kinase, and 50 mM MOPS pH 7.5. The cAMP assay kit from Cisbio (Codolet, France) was used for detection according to the supplier’s instructions. For each assay, a cAMP standard curve was established. EC50 and IC50 values were calculated by GraphPad Prism version 8.4.3 for Windows, GraphPad Software, San Diego, CA, USA, https://www.graphpad.com .

[4] = tested on: mAC activity in brain cortical membranes; experiment: AC assay, Gsα-stimulated brain cortical membranes; type: biochemical, mouse
Description: hAC sequences were from NCBI were: ADCY1: NM_021116.3; ADCY2: NM_020546.2; ADCY3: NM_004036.4; ADCY4: NM_001198568.2; ADCY5: NM_183357.2; ADCY6: NM_015270.4; ADCY7: NM_001114.4; ADCY8: NM_001115.2; ADCY9: NM_001116.3. Human mAC genes were from GenScript and fitted with a C-terminal FLAG-tag. […] The gene was synthesized by GenScript. HEK293 cells were maintained in Dulbeccos Modified Eagle Medium (DMEM) with 10% fetal bovine serum at 37°C and 5% CO2. Transfection with AC plasmids was with PolyJet (SignaGen, Frederick, MD, USA). Permanent cell lines were generated by selection for 7 days with 600 µg/ml G418 and maintained with 300 µg/ml For membrane preparation, cells were tyrpsinized, collected by centrifugation (3000 × g, 5 min) and lysed and homogenized in 20 mM HEPES, pH 7.5, 1 mM Ethylenediaminetetraacetic acid (EDTA), 2 mM MgCl2, 1 mM Dithiothreitol (DTT), one tablet of cOmplete, EDTA-free (per 50 ml) and 250 mM sucrose by 20 strokes in a potter homogenizer on ice. Debris was removed (5 min at 1000 × g, 0°C), membranes were collected at 100,000 × g, 60 min at 0°C, suspended and stored at −80°C in 20 mM MOPS, pH 7.5, 0.5 mM EDTA, 2 mM MgCl2. […] Three cerebral cortices were dissected and homogenized in 4.5 ml cold 48 mM Tris–HCl, pH 7.4, 12 mM MgC1_2, and 0.1 mM Ethylene glycol-bis(β-aminoethyl ether)-N,N,N′,N′-tetraacetic acid (EGTA) with a Polytron hand disperser (Kinematica AG, Switzerland). […] The pellet was washed once with 5 ml 1 mM KHCO3. The final suspension in 2 ml 1 mM KHCO3 was stored in aliquots at −80°C.
as §1

SMILES: CCCCC/C=C\C/C=C\C/C=C\C/C=C\CCCC(=O)O [Arachidonic acid, Arachidonic ((5Z,8Z,11Z,14Z)-eicosatetraenoic) acid]
- IC50 ([1]; 10 µM isoproterenol, 0.5 mM IBMX): 0.25 nM
- cAMP level (%); 100%= 10µM Isoproterenol stimulation ([1]; HEK-mAC1, 1e-5 µM): 113% and 69%
- cAMP level (%); 100%= 10µM Isoproterenol stimulation ([1]; HEK-mAC1, 0.0001 µM): 98% and 73%
- cAMP level (%); 100%= 10µM Isoproterenol stimulation ([1]; HEK-mAC1, 0.001 µM): 93% and 69%
- cAMP level (%); 100%= 10µM Isoproterenol stimulation ([1]; HEK-mAC1, 0.003 µM): 61%
- cAMP level (%); 100%= 10µM Isoproterenol stimulation ([1]; HEK-mAC1, 0.006 µM): 59%
- cAMP level (%); 100%= 10µM Isoproterenol stimulation ([1]; HEK-mAC1, 0.01 µM): 62% and 55% and 52% and 91% and 64%
- cAMP level (%); 100%= 10µM Isoproterenol stimulation ([1]; HEK-mAC1, 0.1 µM): 77% and 55% and 49% and 97% and 63%
- cAMP level (%); 100%= 10µM Isoproterenol stimulation ([1]; HEK-mAC1, 0.6 µM): 47%
- cAMP level (%); 100%= 10µM Isoproterenol stimulation ([1]; HEK-mAC1, 60 µM): 72% and 67% and 51% and 53% and 65%
- cAMP level (%); 100%= 10µM Isoproterenol stimulation ([1]; HEK-mAC1, 100 µM): 76% and 47% and 57% and 42% and 44% and 60% and 81%
- Effect on isoproterenol-stimulated cAMP formation in HEK-mAC4 ([2]; 10 µM isoproterenol, in words): not attenuated
- cAMP level (%); 100%= 10µM Isoproterenol stimulation ([2]; HEK-mAC4, 1e-5 µM): 136%
- cAMP level (%); 100%= 10µM Isoproterenol stimulation ([2]; HEK-mAC4, 0.0001 µM): 111%
- cAMP level (%); 100%= 10µM Isoproterenol stimulation ([2]; HEK-mAC4, 0.001 µM): 114%
- cAMP level (%); 100%= 10µM Isoproterenol stimulation ([2]; HEK-mAC4, 0.01 µM): 81% and 101% and 120% and 122%
- cAMP level (%); 100%= 10µM Isoproterenol stimulation ([2]; HEK-mAC4, 0.03 µM): 124%
- cAMP level (%); 100%= 10µM Isoproterenol stimulation ([2]; HEK-mAC4, 0.06 µM): 102%
- cAMP level (%); 100%= 10µM Isoproterenol stimulation ([2]; HEK-mAC4, 0.1 µM): 84% and 94% and 116% and 103%
- cAMP level (%); 100%= 10µM Isoproterenol stimulation ([2]; HEK-mAC4, 0.6 µM): 108%
- cAMP level (%); 100%= 10µM Isoproterenol stimulation ([2]; HEK-mAC4, 1 µM): 106% and 107% and 121% and 127% and 99% and 109% and 161% and 110%
- cAMP level (%); 100%= 10µM Isoproterenol stimulation ([2]; HEK-mAC4, 3 µM): 93% and 101% and 129% and 97% and 124% and 139%
- cAMP level (%); 100%= 10µM Isoproterenol stimulation ([2]; HEK-mAC4, 10 µM): 112% and 82% and 111% and 109% and 125% and 147%
- cAMP level (%); 100%= 10µM Isoproterenol stimulation ([2]; HEK-mAC4, 30 µM): 103% and 112% and 97% and 105% and 131%
- cAMP level (%); 100%= 10µM Isoproterenol stimulation ([2]; HEK-mAC4, 60 µM): 95% and 112% and 121% and 114% and 128%
- cAMP level (%); 100%= 10µM Isoproterenol stimulation ([2]; HEK-mAC4, 100 µM): 99% and 78% and 112% and 85% and 100% and 146% and 145%

SMILES: CCCCCCCC/C=C\CCCCCCCC(=O)O [Oleic acid, Oleic ((9Z)-octadecenoic) acid]
- AC activity (%); stimulated by 300nM Gsα, mAC1-C1/mAC2-C2 ([3]; Oleic acid 0.3 µM): 100%
- AC activity (%); stimulated by 300nM Gsα, mAC1-C1/mAC2-C2 ([3]; Oleic acid 1 µM): 93% and 84% and 72%
- AC activity (%); stimulated by 300nM Gsα, mAC1-C1/mAC2-C2 ([3]; Oleic acid 3 µM): 77% and 90% and 82%
- AC activity (%); stimulated by 300nM Gsα, mAC1-C1/mAC2-C2 ([3]; Oleic acid 6 µM): 78% and 77% and 84%
- AC activity (%); stimulated by 300nM Gsα, mAC1-C1/mAC2-C2 ([3]; Oleic acid 10 µM): 68% and 70% and 67%
- AC activity (%); stimulated by 300nM Gsα, mAC1-C1/mAC2-C2 ([3]; Oleic acid 20 µM): 74% and 77% and 65%
- enhancement of Gsα-stimulated cAMP formation in cortical membranes ([4]; 20 µM oleic acid): 1.5 fold
- mAC activity [%] (100% = 300nM Gsα stimulation), mouse brain cortex ([4]; Oleic acid 1 µM): 78% and 93% and 114%
- mAC activity [%] (100% = 300nM Gsα stimulation), mouse brain cortex ([4]; Oleic acid 3 µM): 154%
- mAC activity [%] (100% = 300nM Gsα stimulation), mouse brain cortex ([4]; Oleic acid 6 µM): 153% and 144%
- mAC activity [%] (100% = 300nM Gsα stimulation), mouse brain cortex ([4]; Oleic acid 8 µM): 173% and 146% and 174%
- mAC activity [%] (100% = 300nM Gsα stimulation), mouse brain cortex ([4]; Oleic acid 10 µM): 142% and 181%
- mAC activity [%] (100% = 300nM Gsα stimulation), mouse brain cortex ([4]; Oleic acid 20 µM): 187% and 161% and 140%
- EC50 ([4]; enhancement of 300 nM Gsα-stimulated cAMP formation): 5000 nM
